Data taken from US20030008913A1, “Derivatives of 2,2-dimethyl 3(2-fluoro vinyl) cyclopropane carboxylic acid, their preparation process and their use as pesticides” (priority 1997, published 2003).

System: Blattela
Assay: Knockdown-effect against Blattela in a windtunnel (comparative example)
Type: in vivo
Settings: Rate 0.003% w/v in 80% OPD 120 acetone mixture
Description: The knockdown-effect at 30 seconds and 2 minutes of the compounds of Examples 14, 27, 43 and lmiprothrin, a commercially used pyrethroid, against Blattela was assessed.
The tests were carried out in a windtunnel. The active ingredient was diluted to 0.003% w/v in an 80% OPD 120 acetone mixture. Controls (i.e., sprayed with the carrier liquid alone) were inserted at the beginning of the test, and twice at the end.

C#CCN1CC(=O)N(COC(=O)[C@@H]2C(C=C(C)C)C2(C)C)C1=O (mixture of isomers) [Imiprothrin]
knockdown-effect at 30 sec. (30 sec.): 0%
knockdown-effect at 2 min (2 min): 10%
